Read-outs that look alike come from different tables or passages of the source. Marks after values point to notes of the source that are not given here.
Tested on: human osteosarcoma DM113
Type: in vivo
Method: The resultant solution contains 10 mg/mL of cabazitaxel. Stock solution of cabazitaxel was then diluted in 0.9% sodium chloride.
This efficacy may be quantified, for example, as changes in tumor volume for each treated (T) and control (C) group, which are calculated for each animal and each day by subtracting the tumor volume on the day of first treatment (staging day) from the tumor volume on the specified observation day. This allows calculating the tumor growth inhibition: ΔT/ΔC=(median delta T/median delta C)×100. Individual tumor volume changes from baseline are thereafter analyzed by a non-parametric two-way ANOVA-TYPE (with factors: group and repeated days) followed by a post-hoc contrasts analysis, with Bonferroni-Holm adjustment for multiplicity, comparing all treated groups to the control group. […] A probability less than 5% (p<0.05) was considered as significant.
Based on the National Cancer Institute (NCl) standards, a ΔT/ΔC≦40% is the minimal level required to declare activity.
This efficacy may also be quantified by the number of tumor regressions observed after therapy. Individual mice reporting a tumor volume ≦50% of the Day 0 measurement for two consecutive measurements over a seven day period were considered partial responders (PR). Individual mice lacking palpable tumors (<4×4 mm^2 for two consecutive measurements over a seven day period) were classified as complete responders (CR); a CR that persisted until study completion was considered a tumor-free survivor (TFS).
Efficacy could also be determined at study completion, using tumor growth delay (T-C) in days, which is calculated using the median time to endpoint (MTTE) value for each treatment (T) group versus control (C). A Log Rank multiple comparison test with Bonferroni-Holm adjustment for multiplicity was applied on individual TTE to compare the treated groups to the control group.
The animals subjected to the experiment are subcutaneously grafted unilaterally with approximately 30 mg of a tumor fragment from low passage pediatric patient-derived tumor xenografts. The animals are implanted with a human patient-derived pediatric tumor xenografted in immuno-compromised mice (Harlan; nu/nu). Several days post tumor implantation, mice are randomized according to their tumor burden to the different groups of treatments and controls. The agents are dosed intravenously at 5.8, 9.3, 15 or 24.2 mg/kg every 4 days for a total of 3 doses (q4d×3) to mice bearing a tumor burden at start of therapy (day 0) ranged from 125 to 250 mm^3.
Beginning Day 0, animals were observed daily and weighed twice weekly using a digital scale; data including individual and mean gram weights (Mean We±SD), mean percent weight change versus Day 0 were recorded for each group. Animal deaths were recorded daily and designated as drug-related (D), technical (T), tumor related (B), or unknown (U) based on weight loss and gross observation; single agent or combination groups reporting a mean >20% for a period of 7 days and/or >10% mortality were considered above the maximum tolerated dose (MTD) for that treatment on the evaluated regimen.
The selected tumor model, DM113, was a low passage patient-derived tumor xenograft derived from an osteosarcoma taken from the lung of a patient.
The following end points were used: • Toxicity was declared at dosages inducing ≧20% body weight loss or ≧10% drug death; • Antitumor efficacy was determined by calculating the ΔT/ΔC value in percent on day 28 post treatment initiation, according to the above mentioned formula; • Individual tumor volume changes from baseline were analyzed by a non-parametric two-way ANOVA-TYPE (with factors: group and repeated day from 3 to 28) followed by a post-hoc contrasts analysis, with Bonferroni-Holm adjustment for multiplicity, comparing all treated groups to the control group on day 28. […] The volume endpoint for T-C calculations was chosen to be 1600 mm^3.

[1] = 5.8 mg/kg i.v./q4dx3, volume endpoint 1600 mm^3
[2] = 9.3 mg/kg i.v./q4dx3, volume endpoint 1600 mm^3
[3] = 15 mg/kg i.v./q4dx3, volume endpoint 1600 mm^3
[4] = 24.2 mg/kg i.v./q4dx3, volume endpoint 1600 mm^3

CC(=O)O[C@@]12CO[C@@H]1C[C@H](O)[C@@]1(C)C(=O)[C@H](O)C3=C(C)[C@@H](OC(=O)[C@H](O)[C@@H](NC(=O)OC(C)(C)C)c4ccccc4)C[C@@](O)([C@@H](OC(=O)c4ccccc4)[C@H]21)C3(C)C [Docetaxel, docetaxel]
#CR (5.8 mg/kg i.v./q4dx3): 0/0/0
#PR (5.8 mg/kg i.v./q4dx3): 0/0/0
#TFS (5.8 mg/kg i.v./q4dx3): 0/0/0
Drug Deaths Total (5.8 mg/kg i.v./q4dx3): 0
Weight Nadir % (5.8 mg/kg i.v./q4dx3): −2%
Weight Nadir Day (5.8 mg/kg i.v./q4dx3): 3
Tumor Volume Data (Day 28) Median (5.8 mg/kg i.v./q4dx3, day 28): 598 mm^3
ΔT/ΔC % (5.8 mg/kg i.v./q4dx3, day 28): 42.9%
MTTE [1]: 41 days
T-C [1]: 9 days
ΔT/ΔC (5.8 mg/kg q4d×3 IV, day 28): 42.9%
tumor growth delay (T-C) (5.8 mg/kg q4d×3 IV, volume endpoint 1600 mm^3): 9 days
tumor volume changes from baseline, Median +/− MAD (5.8 mg/kg, DAY 3): 22.5 +/− 22.5
tumor volume changes from baseline, Median +/− MAD (5.8 mg/kg, DAY 8): 95 +/− 22.5
tumor volume changes from baseline, Median +/− MAD (5.8 mg/kg, DAY 11): 117.5 +/− 45
tumor volume changes from baseline, Median +/− MAD (5.8 mg/kg, DAY 14): 189 +/− 60.5
tumor volume changes from baseline, Median +/− MAD (5.8 mg/kg, DAY 17): 242.5 +/− 110
tumor volume changes from baseline, Median +/− MAD (5.8 mg/kg, DAY 21): 278.5 +/− 142
tumor volume changes from baseline, Median +/− MAD (5.8 mg/kg, DAY 24): 435 +/− 159
tumor volume changes from baseline, Median +/− MAD (5.8 mg/kg, DAY 28): 487 +/− 231.5
tumor volume changes from baseline, Median +/− MAD (5.8 mg/kg, DAY 31): 598 +/− 204
tumor volume changes from baseline, Median +/− MAD (5.8 mg/kg, DAY 35): 813 +/− 367
tumor volume changes from baseline, Median +/− MAD (5.8 mg/kg, DAY 38): 960 +/− 388
tumor volume changes from baseline, Median +/− MAD (5.8 mg/kg, DAY 42): 1032 +/− 326
tumor volume changes from baseline, Median +/− MAD (5.8 mg/kg, DAY 46): 1340 +/− 384
#CR (9.3 mg/kg i.v./q4dx3): 0
#PR (9.3 mg/kg i.v./q4dx3): 1
#TFS (9.3 mg/kg i.v./q4dx3): 0
Drug Deaths Total (9.3 mg/kg i.v./q4dx3): 0*
Weight Nadir % (9.3 mg/kg i.v./q4dx3): −3%
Weight Nadir Day (9.3 mg/kg i.v./q4dx3): 17
Tumor Volume Data (Day 28) Median (9.3 mg/kg i.v./q4dx3, day 28): 442 mm^3
ΔT/ΔC % (9.3 mg/kg i.v./q4dx3, day 28): 27.4%
MTTE [2]: 49 days
T-C [2]: 17 days
tumor volume changes from baseline, Median +/− MAD (9.3 mg/kg, DAY 3): 56.5 +/− 26.5
tumor volume changes from baseline, Median +/− MAD (9.3 mg/kg, DAY 8): 85.5 +/− 27
tumor volume changes from baseline, Median +/− MAD (9.3 mg/kg, DAY 11): 73 +/− 42.5
tumor volume changes from baseline, Median +/− MAD (9.3 mg/kg, DAY 14): 85.5 +/− 34.5
tumor volume changes from baseline, Median +/− MAD (9.3 mg/kg, DAY 17): 117.5 +/− 51.5
tumor volume changes from baseline, Median +/− MAD (9.3 mg/kg, DAY 21): 140.5 +/− 52
tumor volume changes from baseline, Median +/− MAD (9.3 mg/kg, DAY 24): 239 +/− 94.5
tumor volume changes from baseline, Median +/− MAD (9.3 mg/kg, DAY 28): 311 +/− 75.5
tumor volume changes from baseline, Median +/− MAD (9.3 mg/kg, DAY 31): 390 +/− 90.5
tumor volume changes from baseline, Median +/− MAD (9.3 mg/kg, DAY 35): 545 +/− 52
tumor volume changes from baseline, Median +/− MAD (9.3 mg/kg, DAY 38): 677 +/− 118
tumor volume changes from baseline, Median +/− MAD (9.3 mg/kg, DAY 42): 827.5 +/− 293.5
tumor volume changes from baseline, Median +/− MAD (9.3 mg/kg, DAY 46): 1187 +/− 347.5
#CR (15 mg/kg i.v./q4dx3): 0/0/0
#PR (15 mg/kg i.v./q4dx3): 0/0/0
#TFS (15 mg/kg i.v./q4dx3): 0/0/0
Drug Deaths Total (15 mg/kg i.v./q4dx3): 0
Weight Nadir % (15 mg/kg i.v./q4dx3): −8%
Weight Nadir Day (15 mg/kg i.v./q4dx3): 17
Tumor Volume Data (Day 28) Median (15 mg/kg i.v./q4dx3, day 28): 178 mm^3
ΔT/ΔC % (15 mg/kg i.v./q4dx3, day 28): 3.2%
MTTE [3]: >59 days
T-C [3]: >28 days
numbers of PR (15 mg/kg q4d×3 IV): 0/10
tumor volume changes from baseline, Median +/− MAD (15 mg/kg, DAY 3): 26 +/− 26
tumor volume changes from baseline, Median +/− MAD (15 mg/kg, DAY 8): 26 +/− 26
tumor volume changes from baseline, Median +/− MAD (15 mg/kg, DAY 11): 13 +/− 16.5
tumor volume changes from baseline, Median +/− MAD (15 mg/kg, DAY 14): 13 +/− 16.5
tumor volume changes from baseline, Median +/− MAD (15 mg/kg, DAY 17): 13 +/− 16.5
tumor volume changes from baseline, Median +/− MAD (15 mg/kg, DAY 21): 0 +/− 19
tumor volume changes from baseline, Median +/− MAD (15 mg/kg, DAY 24): 22.5 +/− 23.5
tumor volume changes from baseline, Median +/− MAD (15 mg/kg, DAY 28): 36.5 +/− 35.5
tumor volume changes from baseline, Median +/− MAD (15 mg/kg, DAY 31): 42.5 +/− 29.5
tumor volume changes from baseline, Median +/− MAD (15 mg/kg, DAY 35): 61 +/− 61
tumor volume changes from baseline, Median +/− MAD (15 mg/kg, DAY 38): 61 +/− 81
tumor volume changes from baseline, Median +/− MAD (15 mg/kg, DAY 42): 107 +/− 90
tumor volume changes from baseline, Median +/− MAD (15 mg/kg, DAY 46): 155 +/− 153
#CR (24.2 mg/kg i.v./q4dx3): 0
#PR (24.2 mg/kg i.v./q4dx3): 1
#TFS (24.2 mg/kg i.v./q4dx3): 0
Drug Deaths Total (24.2 mg/kg i.v./q4dx3): 0
Weight Nadir % (24.2 mg/kg i.v./q4dx3): −13%
Weight Nadir Day (24.2 mg/kg i.v./q4dx3): 17
ΔT/ΔC % (24.2 mg/kg i.v./q4dx3, day 28): 0%
MTTE [4]: >59 days
T-C [4]: >28 days
numbers of PR (24.2 mg/kg q4d×3 IV): 1/10
tumor volume changes from baseline, Median +/− MAD (24.2 mg/kg, DAY 3): 29.5 +/− 13.5
tumor volume changes from baseline, Median +/− MAD (24.2 mg/kg, DAY 8): 22.5 +/− 22.5
tumor volume changes from baseline, Median +/− MAD (24.2 mg/kg, DAY 11): 0 +/− 22
tumor volume changes from baseline, Median +/− MAD (24.2 mg/kg, DAY 14): −9.5 +/− 35
tumor volume changes from baseline, Median +/− MAD (24.2 mg/kg, DAY 17): −9.5 +/− 26
tumor volume changes from baseline, Median +/− MAD (24.2 mg/kg, DAY 21): −9.5 +/− 26
tumor volume changes from baseline, Median +/− MAD (24.2 mg/kg, DAY 24): 0 +/− 0
tumor volume changes from baseline, Median +/− MAD (24.2 mg/kg, DAY 28): 0 +/− 9.5
tumor volume changes from baseline, Median +/− MAD (24.2 mg/kg, DAY 31): 0 +/− 9.5
tumor volume changes from baseline, Median +/− MAD (24.2 mg/kg, DAY 35): 0 +/− 9.5
tumor volume changes from baseline, Median +/− MAD (24.2 mg/kg, DAY 38): 0 +/− 9.5
tumor volume changes from baseline, Median +/− MAD (24.2 mg/kg, DAY 42): 0 +/− 9.5
tumor volume changes from baseline, Median +/− MAD (24.2 mg/kg, DAY 46): 50.5 +/− 47.5

— patent US20140350273A1, “PEDIATRIC USES OF CABAZITAXEL” (AVENTIS PHARMA S.A., priority 2012, published 2014)
